Experimental data taken from ChEMBL document CHEMBL4627344, “Synthesis, biological evaluation and virtual screening of some acridone derivatives as potential anticancer agents” (2020).

How the values were obtained:
Type in all cases: functional
LOX IMVI = assay: Antiproliferative activity against human LOXIMVI cells assessed as inhibition of cell growth measured after 48 hrs by SRB assay
HT-29 = assay: Antiproliferative activity against human HT-29 cells assessed as inhibition of cell growth measured after 48 hrs by SRB assay; details: HT-29, 48 h
IGROV-1 [1] = assay: Antiproliferative activity against human IGROV1 cells assessed as inhibition of cell growth at 10 uM measured after 48 hrs by SRB assay relative to control; details: IGROV-1, 48 h, read-out: GI
UO-31 = assay: Antiproliferative activity against human UO31 cells assessed as inhibition of cell growth measured after 48 hrs by SRB assay; details: UO-31, 48 h
EKVX = assay: Antiproliferative activity against human EKVX cells assessed as inhibition of cell growth measured after 48 hrs by SRB assay
SF-295 = assay: Antiproliferative activity against human SF295 cells assessed as inhibition of cell growth measured after 48 hrs by SRB assay; details: SF-295, 48 h
M14 = assay: Antiproliferative activity against human M14 cells assessed as inhibition of cell growth measured after 48 hrs by SRB assay; details: M14, 48 h
NCI-H322M = assay: Antiproliferative activity against human NCI-H322M cells assessed as inhibition of cell growth measured after 48 hrs by SRB assay
SN12C = assay: Antiproliferative activity against human SN12C cells assessed as inhibition of cell growth at 10 uM measured after 48 hrs by SRB assay relative to control; details: read-out: GI
SF-539 = assay: Antiproliferative activity against human SF539 cells assessed as inhibition of cell growth at 10 uM measured after 48 hrs by SRB assay relative to control; details: SF-539, 48 h, read-out: GI
786-0 = assay: Antiproliferative activity against human 786-0 cells assessed as inhibition of cell growth measured after 48 hrs by SRB assay; details: 786-0, 48 h
HCT-15 = assay: Antiproliferative activity against human HCT15 cells assessed as inhibition of cell growth at 10 uM measured after 48 hrs by SRB assay relative to control; details: HCT-15, 48 h, read-out: GI
HCT-116 = assay: Antiproliferative activity against human HCT116 cells assessed as inhibition of cell growth at 10 uM measured after 48 hrs by SRB assay relative to control; details: HCT-116, 48 h, read-out: GI
U-251 [2] = assay: Antiproliferative activity against human U251 cells assessed as inhibition of cell growth at 10 uM measured after 48 hrs by SRB assay relative to control; details: U-251, 48 h, read-out: GI
COLO 205 [3] = assay: Antiproliferative activity against human COLO205 cells assessed as inhibition of cell growth at 10 uM measured after 48 hrs by SRB assay relative to control; details: COLO 205, 48 h, read-out: GI
COLO 205 [4] = assay: Antiproliferative activity against human COLO205 cells assessed as inhibition of cell growth measured after 48 hrs by SRB assay; details: COLO 205, 48 h
SNB-75 = assay: Antiproliferative activity against human SNB75 cells assessed as inhibition of cell growth measured after 48 hrs by SRB assay; details: SNB-75, 48 h
HL-60(TB) = assay: Antiproliferative activity against human HL-60(TB) cells assessed as inhibition of cell growth at 10 uM measured after 48 hrs by SRB assay relative to control; details: HL-60, 48 h, read-out: GI
BT-549 = assay: Antiproliferative activity against human BT549 cells assessed as inhibition of cell growth at 10 uM measured after 48 hrs by SRB assay relative to control; details: BT-549, 48 h, read-out: GI
NCI-H522 [5] = assay: Antiproliferative activity against human NCI-H522 cells assessed as inhibition of cell growth measured after 48 hrs by SRB assay; details: NCI-H522, 48 h
SW-620 = assay: Antiproliferative activity against human SW620 cells assessed as inhibition of cell growth measured after 48 hrs by SRB assay; details: SW-620, 48 h
NCI-H522 [6] = assay: Antiproliferative activity against human NCI-H522 cells assessed as inhibition of cell growth at 10 uM measured after 48 hrs by SRB assay relative to control; details: NCI-H522, 48 h, read-out: GI
DU-145 = assay: Antiproliferative activity against human DU145 cells assessed as inhibition of cell growth at 10 uM measured after 48 hrs by SRB assay relative to control; details: DU-145, 48 h, read-out: GI
IGROV-1 [7] = assay: Antiproliferative activity against human IGROV1 cells assessed as inhibition of cell growth measured after 48 hrs by SRB assay; details: IGROV-1, 48 h
ACHN = assay: Antiproliferative activity against human ACHN cells assessed as inhibition of cell growth measured after 48 hrs by SRB assay
OVCAR-3 = assay: Antiproliferative activity against human OVCAR3 cells assessed as inhibition of cell growth measured after 48 hrs by SRB assay; details: OVCAR-3, 48 h
OVCAR-5 = assay: Antiproliferative activity against human OVCAR5 cells assessed as inhibition of cell growth at 10 uM measured after 48 hrs by SRB assay relative to control; details: OVCAR-5, 48 h, read-out: GI
SNB-19 = assay: Antiproliferative activity against human SNB19 cells assessed as inhibition of cell growth at 10 uM measured after 48 hrs by SRB assay relative to control; details: SNB-19, 48 h, read-out: GI
NCI-H460 = assay: Antiproliferative activity against human NCI-H460 cells assessed as inhibition of cell growth measured after 48 hrs by SRB assay; details: NCI-H460, 48 h
OVCAR-8 = assay: Antiproliferative activity against human OVCAR8 cells assessed as inhibition of cell growth measured after 48 hrs by SRB assay; details: OVCAR-8, 48 h
HCC 2998 = assay: Antiproliferative activity against human HCC2998 cells assessed as inhibition of cell growth at 10 uM measured after 48 hrs by SRB assay relative to control; details: HCC 2998, 48 h, read-out: GI
NCI/ADR-RES = assay: Antiproliferative activity against human NCI/ADR-RES cells assessed as inhibition of cell growth measured after 48 hrs by SRB assay
A498 = assay: Antiproliferative activity against human A498 cells assessed as inhibition of cell growth at 10 uM measured after 48 hrs by SRB assay relative to control; details: A498, 48 h, read-out: GI
SK-MEL-28 = assay: Antiproliferative activity against human SK-MEL-28 cells assessed as inhibition of cell growth measured after 48 hrs by SRB assay; details: SK-MEL-28, 48 h
NCI-H226 = assay: Antiproliferative activity against human NCI-H226 cells assessed as inhibition of cell growth measured after 48 hrs by SRB assay; details: NCI-H226, 48 h
U-251 [8] = assay: Antiproliferative activity against human U251 cells assessed as inhibition of cell growth measured after 48 hrs by SRB assay; details: U-251, 48 h

COc1ccc2nc3c(cc2c1)C(=O)CC(c1ccccc1)C3 (centres undefined)
GI50 (LOX IMVI): 887 nM | GI50 (HT-29): 428 nM | inhibition of growth at 10 µM (IGROV-1 [1]): 64.2% | GI50 (UO-31): 543 nM | GI50 (EKVX): 5920 nM | GI50 (SF-295): 634 nM | GI50 (M14): 259 nM | GI50 (NCI-H322M): 5780 nM | inhibition of growth at 10 µM (SN12C): 59.3% | inhibition of growth at 10 µM (SF-539): 92.1% | GI50 (786-0): 4370 nM | inhibition of growth at 10 µM (HCT-15): 75.2% | inhibition of growth at 10 µM (HCT-116): 88.9% | inhibition of growth at 10 µM (U-251 [2]): 55% | inhibition of growth at 10 µM (COLO 205 [3]): 98.1% | GI50 (COLO 205 [4]): 608 nM | GI50 (SNB-75): 572 nM | inhibition of growth at 10 µM (HL-60(TB)): 102% | inhibition of growth at 10 µM (BT-549): 48.3% | GI50 (NCI-H522 [5]): 471 nM | GI50 (SW-620): 747 nM | inhibition of growth at 10 µM (NCI-H522 [6]): 84.6% | inhibition of growth at 10 µM (DU-145): 98.9% | GI50 (IGROV-1 [7]): 2310 nM | GI50 (ACHN): 756 nM | GI50 (OVCAR-3): 1230 nM | inhibition of growth at 10 µM (OVCAR-5): 38.8% | inhibition of growth at 10 µM (SNB-19): 65.7% | GI50 (NCI-H460): 1710 nM | GI50 (OVCAR-8): 1060 nM | inhibition of growth at 10 µM (HCC 2998): 8.74% | GI50 (NCI/ADR-RES): 408 nM | inhibition of growth at 10 µM (A498): 113%

O=C1CC(c2ccccc2)Cc2nc3ccc(Cl)cc3cc21 (centres undefined)
GI50 (LOX IMVI): 558 nM | GI50 (HT-29): 271 nM | inhibition of growth at 10 µM (IGROV-1 [1]): 83.5% | GI50 (UO-31): 489 nM | GI50 (EKVX): 607 nM | GI50 (SF-295): 196 nM | GI50 (M14): 38 nM | GI50 (NCI-H322M): 720 nM | inhibition of growth at 10 µM (SN12C): 71.8% | inhibition of growth at 10 µM (SF-539): 112% | GI50 (786-0): 838 nM | inhibition of growth at 10 µM (HCT-15): 86.1% | inhibition of growth at 10 µM (HCT-116): 94.5% | inhibition of growth at 10 µM (U-251 [2]): 81.2% | inhibition of growth at 10 µM (COLO 205 [3]): 132% | GI50 (COLO 205 [4]): 346 nM | GI50 (SK-MEL-28): 1690 nM | GI50 (SNB-75): 215 nM | inhibition of growth at 10 µM (HL-60(TB)): 121% | GI50 (NCI-H226): 1610 nM | inhibition of growth at 10 µM (BT-549): 95.4% | GI50 (NCI-H522 [5]): 314 nM | GI50 (SW-620): 370 nM | inhibition of growth at 10 µM (NCI-H522 [6]): 97% | GI50 (U-251 [8]): 729 nM | inhibition of growth at 10 µM (DU-145): 99.8% | GI50 (IGROV-1 [7]): 375 nM | GI50 (ACHN): 508 nM | GI50 (OVCAR-3): 302 nM | inhibition of growth at 10 µM (OVCAR-5): 73.6% | inhibition of growth at 10 µM (SNB-19): 75% | GI50 (NCI-H460): 345 nM | GI50 (OVCAR-8): 534 nM | inhibition of growth at 10 µM (HCC 2998): 94.7% | GI50 (NCI/ADR-RES): 64.4 nM | inhibition of growth at 10 µM (A498): 117%
